Measured values reported in publication PMC8217266 (Clinical Pharmacology and Therapeutics, 2021).

Tests used:
human OATP1B1 = target: T1, human OATP1B1 (Homo sapiens, UniProt Q9Y6L6); conditions: for potency difference of the inhibitor for [3H]-EG vs [3H]-ES as OATP1B1 probes: inhibits EG at one-tenth (or lower) the concentration that inhibits ES
T1 sequence (Q9Y6L6 1-691): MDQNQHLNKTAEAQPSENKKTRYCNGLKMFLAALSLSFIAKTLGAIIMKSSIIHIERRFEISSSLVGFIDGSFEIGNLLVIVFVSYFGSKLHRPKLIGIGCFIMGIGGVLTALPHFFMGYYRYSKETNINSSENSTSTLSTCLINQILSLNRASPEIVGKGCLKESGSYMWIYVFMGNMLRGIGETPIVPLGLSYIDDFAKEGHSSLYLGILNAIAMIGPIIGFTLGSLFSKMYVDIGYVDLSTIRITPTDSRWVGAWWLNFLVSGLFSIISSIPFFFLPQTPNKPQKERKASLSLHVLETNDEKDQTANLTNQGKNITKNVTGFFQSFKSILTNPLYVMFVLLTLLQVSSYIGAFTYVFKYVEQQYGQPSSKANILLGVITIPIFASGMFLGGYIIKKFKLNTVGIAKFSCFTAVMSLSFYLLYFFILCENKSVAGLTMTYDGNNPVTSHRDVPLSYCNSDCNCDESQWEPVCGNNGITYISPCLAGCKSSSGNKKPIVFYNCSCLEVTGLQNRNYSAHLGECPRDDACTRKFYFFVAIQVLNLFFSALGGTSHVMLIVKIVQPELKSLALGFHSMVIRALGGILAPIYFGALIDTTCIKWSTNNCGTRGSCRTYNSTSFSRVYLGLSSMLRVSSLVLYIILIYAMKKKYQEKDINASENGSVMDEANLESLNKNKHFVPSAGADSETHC

human OAT1 = target: T2, human OAT1 (Homo sapiens, UniProt Q4U2R8); experiment: cell-based
T2 sequence (Q4U2R8 1-563): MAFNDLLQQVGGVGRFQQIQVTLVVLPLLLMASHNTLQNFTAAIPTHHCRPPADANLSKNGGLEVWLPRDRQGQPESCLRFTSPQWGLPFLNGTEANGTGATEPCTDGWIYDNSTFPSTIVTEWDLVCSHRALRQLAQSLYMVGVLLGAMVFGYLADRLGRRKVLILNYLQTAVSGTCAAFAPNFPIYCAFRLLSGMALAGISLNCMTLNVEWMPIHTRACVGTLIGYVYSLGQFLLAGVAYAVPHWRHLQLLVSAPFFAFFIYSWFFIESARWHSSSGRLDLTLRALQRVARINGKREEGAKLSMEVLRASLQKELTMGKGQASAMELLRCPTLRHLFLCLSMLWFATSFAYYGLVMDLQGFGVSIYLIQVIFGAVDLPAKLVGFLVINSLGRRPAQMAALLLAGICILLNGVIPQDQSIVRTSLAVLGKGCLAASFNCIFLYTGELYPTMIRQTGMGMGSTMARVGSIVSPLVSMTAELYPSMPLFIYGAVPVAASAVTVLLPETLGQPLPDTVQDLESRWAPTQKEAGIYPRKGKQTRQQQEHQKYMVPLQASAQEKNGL

P-gp = P-gp (Homo sapiens, UniProt P08183); experiment: biochemical
human MATE1 = target: T3, human MATE1 (Homo sapiens, UniProt Q96FL8)
T3 sequence (Q96FL8 1-570): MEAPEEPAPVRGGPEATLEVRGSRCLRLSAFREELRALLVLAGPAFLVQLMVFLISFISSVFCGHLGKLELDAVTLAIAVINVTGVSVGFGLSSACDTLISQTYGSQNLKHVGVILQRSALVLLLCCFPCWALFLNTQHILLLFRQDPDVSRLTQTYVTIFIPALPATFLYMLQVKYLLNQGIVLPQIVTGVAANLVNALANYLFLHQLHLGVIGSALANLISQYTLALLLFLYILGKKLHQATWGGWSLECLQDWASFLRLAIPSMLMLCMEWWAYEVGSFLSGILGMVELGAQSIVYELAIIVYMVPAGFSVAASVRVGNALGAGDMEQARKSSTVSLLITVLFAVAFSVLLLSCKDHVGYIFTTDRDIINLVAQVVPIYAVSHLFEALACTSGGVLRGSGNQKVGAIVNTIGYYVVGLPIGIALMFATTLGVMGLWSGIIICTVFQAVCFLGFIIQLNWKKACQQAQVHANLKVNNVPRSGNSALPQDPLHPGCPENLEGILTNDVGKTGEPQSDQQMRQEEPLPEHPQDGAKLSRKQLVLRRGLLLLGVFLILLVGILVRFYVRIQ

human OAT3 = target: T4, human OAT3 (Homo sapiens, UniProt Q8TCC7); conditions: for Cu,max/IC50 OAT3: human
T4 sequence (Q8TCC7 1-542): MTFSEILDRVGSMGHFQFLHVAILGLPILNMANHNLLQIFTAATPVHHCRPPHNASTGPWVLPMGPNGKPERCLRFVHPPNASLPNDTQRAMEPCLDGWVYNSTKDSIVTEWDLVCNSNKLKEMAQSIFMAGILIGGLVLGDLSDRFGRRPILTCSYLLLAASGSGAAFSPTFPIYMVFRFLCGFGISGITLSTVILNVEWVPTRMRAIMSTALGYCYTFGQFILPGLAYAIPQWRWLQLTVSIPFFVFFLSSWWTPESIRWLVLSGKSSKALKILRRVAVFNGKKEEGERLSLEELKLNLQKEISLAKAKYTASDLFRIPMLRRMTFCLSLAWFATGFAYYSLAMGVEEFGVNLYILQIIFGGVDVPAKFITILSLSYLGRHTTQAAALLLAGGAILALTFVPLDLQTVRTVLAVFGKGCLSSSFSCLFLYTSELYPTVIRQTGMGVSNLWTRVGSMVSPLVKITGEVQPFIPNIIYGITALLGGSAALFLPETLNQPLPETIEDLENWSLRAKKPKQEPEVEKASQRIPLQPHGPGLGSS

P-gp, sequence (P08183 whole entry): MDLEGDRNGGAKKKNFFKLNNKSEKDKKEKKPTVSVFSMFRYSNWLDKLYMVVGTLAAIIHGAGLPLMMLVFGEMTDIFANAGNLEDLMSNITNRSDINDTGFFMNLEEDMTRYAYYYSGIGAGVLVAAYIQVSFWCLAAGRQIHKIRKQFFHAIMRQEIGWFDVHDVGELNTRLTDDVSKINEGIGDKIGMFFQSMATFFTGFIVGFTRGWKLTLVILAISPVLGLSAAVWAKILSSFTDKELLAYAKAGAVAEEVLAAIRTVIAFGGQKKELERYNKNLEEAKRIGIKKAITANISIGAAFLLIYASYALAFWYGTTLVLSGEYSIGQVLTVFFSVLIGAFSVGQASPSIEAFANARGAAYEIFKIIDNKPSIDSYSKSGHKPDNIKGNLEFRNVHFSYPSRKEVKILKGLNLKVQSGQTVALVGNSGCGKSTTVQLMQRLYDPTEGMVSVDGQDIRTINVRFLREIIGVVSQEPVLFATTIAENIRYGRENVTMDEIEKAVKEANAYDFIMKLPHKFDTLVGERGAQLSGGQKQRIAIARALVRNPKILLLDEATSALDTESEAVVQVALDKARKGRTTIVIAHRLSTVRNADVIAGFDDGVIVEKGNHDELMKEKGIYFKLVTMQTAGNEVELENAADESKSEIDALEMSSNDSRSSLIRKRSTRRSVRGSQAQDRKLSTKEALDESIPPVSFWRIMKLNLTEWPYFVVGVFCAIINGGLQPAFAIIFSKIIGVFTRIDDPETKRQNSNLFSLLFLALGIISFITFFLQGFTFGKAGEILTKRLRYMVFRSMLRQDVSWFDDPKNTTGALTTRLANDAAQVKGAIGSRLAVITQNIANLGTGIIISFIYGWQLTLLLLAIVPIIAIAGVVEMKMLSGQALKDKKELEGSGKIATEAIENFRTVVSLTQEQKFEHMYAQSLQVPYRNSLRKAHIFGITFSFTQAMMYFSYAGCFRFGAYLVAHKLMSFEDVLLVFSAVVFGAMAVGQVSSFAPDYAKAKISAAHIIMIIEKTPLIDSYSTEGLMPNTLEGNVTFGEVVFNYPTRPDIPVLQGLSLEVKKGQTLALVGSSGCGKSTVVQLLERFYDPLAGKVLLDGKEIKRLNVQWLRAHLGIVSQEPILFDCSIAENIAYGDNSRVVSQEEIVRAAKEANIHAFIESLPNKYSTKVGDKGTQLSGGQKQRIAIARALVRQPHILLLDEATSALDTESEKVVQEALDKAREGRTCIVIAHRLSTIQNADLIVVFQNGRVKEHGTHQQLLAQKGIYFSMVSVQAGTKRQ

Structure (SMILES)	potency difference of the inhibitor for [3H]-EG vs [3H]-ES as OATP1B1 probes (human OATP1B1)	IC50 (human OAT1)	IC50 (P-gp)	Cu,max/IC50 MATE1 (human MATE1)	OAT3 inhibited more potently relative to OAT1 (human OAT3)	Cu,max/IC50 OAT3 (human OAT3)	Iu,in,max/IC50 OATP1B1 (human OATP1B1; human)
CC(C)CN(C[C@@H](O)[C@H](Cc1ccccc1)NC(=O)O[C@H]1CO[C@H]2OCC[C@H]21)S(=O)(=O)c1ccc(N)cc1 [Darunavir]	> 10 fold	95 µM	16 µM	–	–	–	–
CCC(CC)COC(=O)[C@H](C)N[P@](=O)(OC[C@H]1O[C@@](C#N)(c2ccc3c(N)ncnn23)[C@H](O)[C@@H]1O)Oc1ccccc1 [Remdesivir]	> 10 fold	> 100 µM	14 µM	–	–	–	–
N#CC[C@H](C1CCCC1)n1cc(-c2ncnc3[nH]ccc23)cn1 [Ruxolitinib]	–	> 100 µM	> 100 µM	0.04	≥ 10 fold	0.005	–
CCCc1nn(C)c2c(=O)[nH]c(-c3cc(S(=O)(=O)N4CCN(C)CC4)ccc3OCC)nc12 [Sildenafil]	–	> 100 µM	16 µM	0.02	≥ 10 fold	0.002	–
CCOC(=O)c1c(CSc2ccccc2)n(C)c2cc(Br)c(O)c(CN(C)C)c12 [Umifenovir (Arbidol), Umifenovir]	–	> 100 µM	16 ± 2 µM	0.13	–	0.002	0.93
